Measurements reported in patent US7700623B2, “Arylamidine derivative, salt thereof, and antifungal containing these” (Toyama Chemical Co., Ltd., priority 2004, dated 2010).
Counter-ions that a name gives are not always drawn.

What was measured:
[1] = Vero cell proliferation inhibition test (XTT assay); format: cell-based; details: African green monkey, Vero cells, concentration inhibiting cell proliferation by 50%
Description: The cytotoxicity of each compound was evaluated using Vero cells. Each test compound was dissolved in dimethylsulfoxide (DMSO), which was then subjected to serial dilution with 10% FBS-containing E'MEM and added to a 96-well plate. The cells were suspended in 10% FBS-containing E'MEM, inoculated in an amount of 3,000 cells/well (96-well plate), and cultured in a CO2 incubator at 37° C. for 3 days. The degree of growth of Vero cells was evaluated using a 2,3-bis-(2-methoxy-4-nitro-5-sulfophenyl)-5-[(phenylamino)carbonyl]-2H-tetrazolium=inner salt=monosodium salt (XTT) assay. Thus, an XTT solution containing 1 mg/mL XTT and 25 μmol/L phenazine=methosulfate (PMS) was added to each well, which was then incubated in a CO2 incubator for 2 hours, followed by determining the absorbance of the well at 450 nm (reference: 655 nm) using a micro plate reader. The absorbance ratio between the control (no added compound) and each of the wells was calculated, and the concentration (CC50; μg/mL) of compound inhibiting cell proliferation by 50% was computed.

[2] = Repeated-dose toxicity test in mice (1), hematological test; format: in vivo; details: value when control group is set to 100; 6.25 mg/kg subcutaneously once a day for 7 days, male ICR mice
Description: (§1) Six-week old male ICR mice (body weight range: 30.6 to 34.8 g, the number of animals allocated to each group: 5) were used to examine the repeated-dose toxicity. A solution of each test compound was prepared by dissolution in distilled water. Each compound was subcutaneously administered at a dose of 6.25 mg/kg once a day for 7 days. A sterilized physiological saline was administered to a control group. At the end of the administration period, each mouse was anesthetized with ether. An injection syringe containing a heparin solution (Novo-Heparin Injection 1000, Aventis Pharma K.K.) as an anticoagulant was used for blood collection from abdominal portion of the vena cava. A hematological test was carried out for the following items.
(§2) (Hematological Test Items and Determination Methods)
(§3) Red blood cell count (RBC): Two-angle laser flow cytometry
(§4) Reticulocyte count: Flow cytometry after RNA staining

[3] = system: Candida albicans TIMM1623; assay: Antifungal action: susceptibility testing of fungi by microbroth dilution method; format: cell-based; details: Candida albicans TIMM1623, RPMI/MOPS pH 7.0, 35° C., 48 hours, 50% growth inhibition
Description: Susceptibility testing of fungi was carried out using a microbroth dilution method. The medium used in the susceptibility test was RPMI1640 (RPMI/MOPS) adjusted to pH 7.0 employing 0.165 mol/L morpholinepropanesulfonic acid (MOPS) and 1.0 mol/L sodium hydroxide. A test compound was dissolved in sterile water, which was then subjected to two-fold serial dilution using 100 μL of RPMI/MOPS on a 96-well round bottom plate. Candida albicans TIMM1623 cultured overnight at 35° C. on Sabouraud agar medium was suspended in a sterilized physiological saline. The number of cells was counted under a biological microscope; a suspension of inoculum organism 2×10^3 cells/mL) was prepared using RPMI/MOPS, and 100 μL thereof was then dispensed into each well; and a microplate containing a predetermined concentration of the test compound, the medium, and fungal cells was finally prepared. The plate was cultured at 35° C. for 48 hours. After the end of cultivation, absorbance was determined at 630 nm using an automatic spectrophotometer. The lowest test compound concentration at which 50% growth inhibition was observed as compared to growth control where no test compound was added was defined as IC50.

[4] = Hygroscopicity test (1): storage at relative humidity of 75% for one week; format: physicochemical
Description: The compound of Example 4 and the comparative compound were stored under conditions of room temperature and a relative humidity of 75% or 60° C. and a relative humidity of 75% for one week.

[5] = system: Candida albicans TIMM1623; assay: Mouse Candida infection model test (oral administration); format: in vivo; details: 1 mg/kg orally for 7 days from 2 hours after infection, cyclophosphamide-compromised mice, observed 21 days after infection
Description: Candida albicans TIMM1623 on a SDA plate, which had been cultured overnight at 35° C. was suspended in a sterilized physiological saline, which was then diluted to prepare a suspension of inoculum organism. To make mice in a transiently compromised state, cyclophosphamide was intraperitoneally administered at 200 mg/kg 4 days before infection and at 100 mg/kg the next day after infection. Into the tail vein of mice was inoculated 0.2 mL of the prepared solution of inoculum Candida albicans TIMM1623 to induce infection (about 3×10^4 CFU/mouse). The test compound was suspended in 0.5% methylcellulose and orally administered at 1 mg/kg of mouse body weight. The treatment was started from 2 hours after infection and carried out for 7 days.

[6] = Hygroscopicity test (3): storage at 60° C. and relative humidity of 100% for one week; format: physicochemical; details: relative humidity of 100%
Description: The compound of Example 10 and the comparative compound were stored under conditions of 60° C. and a relative humidity of 100% for one week. As a result, the comparative compound deliquesced.

[7] = system: Trichomonas vaginalis CDC337; assay: Antiprotozoan action; format: cell-based; details: 48 h
Description: Trichomonas vaginalis CDC337 was cultured in a Diamond's trypticase-yeast-maltose medium (pH 6.8) containing 8% fetal bovine serum (FBS). The protozoan bodies which had been cultured 37° C. for 2 days were centrifuged (1,500 rpm, 10 minutes) and subjected to medium replacement with a fresh medium before adjustment to 2×10^4 bodies/mL, followed by dispensing them in an amount of 100 μL/well in a micro plate (96-well, flat bottom). The test compound was dissolved using 0.1 mol/L hydrochloric acid, which was then diluted to a predetermined concentration with the medium, followed by dispensing 100 μL/well thereof into a micro plate. The minimal test compound concentration at which the movement of the bodies was not observed after culture 37° C. under anaerobic conditions for 2 days was defined as MIC.

[8] = Repeated-dose toxicity test in mice (2), hematological test; format: in vivo; details: value when control group is set to 100, male ICR mice
Description: as §1, with “weight range: 27.4 to 33.7” for “weight range: 30.6 to 34.8”, “27.4 to 33.7 g, the” for “30.6 to 34.8 g, the”, “dissolution in 0.1 mol/L hydrochloric acid. Each compound” for “dissolution in distilled water. Each compound”, “of 6.25 or 3.13 mg/kg once” for “of 6.25 mg/kg once”, “day for 14 days. A” for “day for 7 days. A”, “portion of vena cava.” for “portion of the vena cava.”
as §2, §3, §4

[9] = 3.13 mg/kg subcutaneously once a day for 14 days

In the case of N=C(N)c1ccc(OCCCC2CCN(CCCOc3ccc(C(=N)N)cc3)CC2)cc1 [Example 4, 4-{3-[4-(3-{4-[amino(imino)methyl]phenoxy}propyl)-1-piperidinyl]propoxy}benzamidine hydrochloride], the CC50 at 3 days [1] is reported as 25 µg/mL, the “Red blood cell count (RBC)” value [2] is reported as 94 and the IC50 [3] is reported as ≤ 0.0039 µg/mL. For the same compound, the appearance after storage ([4]; 60° C.) was “powder without any change in the appearance” and the appearance after storage ([4]; room temperature) was “powder without any change in the appearance”.

In the case of NC(=NO)c1ccc(OCCCC2CCN(CCCOc3ccc(C(N)=NO)cc3)CC2)cc1 [Example 47, 4-{3-[4-(3-{4-[amino(hydroxyimino)methyl]phenoxy}propyl)-1-piperidinyl]propoxy}benzamide=oxime hydrochloride], the mice survived [5] is reported as 80%.

In the case of N=C(N)c1ccc(OCCCC2CCN(CCCOc3ccc(C(=N)N)cc3)CC2)cc1 [Example 10, 4-{3-[4-(3-{4-[amino(imino)methyl]phenoxy}propyl)-1-piperidinyl]propoxy}benzamidine trihydrochloride pentahydrate], the deliquescence after storage [6] is reported as “did not deliquesce” and the MIC [7] is reported as 16 µg/mL.

With N=C(N)c1ccc(OCCCC2CCN(CCCOc3ccc(C(=N)N)cc3)CC2)cc1 [Example 3, 4-{3-[4-(3-{4-[amino(imino)methyl]phenoxy}propyl)-1-piperidinyl]propoxy}benzamidine] the “Red blood cell count (RBC)” value [8, 9] was 96.4, the “Reticulocyte count (Reticulocyte)” value [8, 9] was 93.5 and the “Red blood cell count (RBC)” value ([8]; 6.25 mg/kg subcutaneously once a day for 14 days) was 98.7.
